Earlier results, collected in patent publication US6747006B2, “Use of GLP-1 or analogs in treatment of myocardial infarction” (Eli Lilly and Company, priority 1996, dated 2004).

Tested on: diabetic patients during acute myocardial infarction
Details: insulin and glucose infusion, then subcutaneous multidose insulin; compared with control group of diabetics without insulin treatment

Insulin: insulin given as control by continuous infusion or subcutaneous injection
lowering of mortality during the year following myocardial infarction: 30%
